Laboratory results: patent US20080247979A1, “Use of a Hydrophobic Zeolite, that Contains and Gives a Slow Release of an Active Element, for Treatment of Skin” (priority 2005, published 2008)

Test: free release of ethanol from loaded hydrophobic zeolite over time, with parallel evaporation of non-adsorbed ethanol
Type: physicochemical
Conditions: one gram ethanol not adsorbed to any hydrophobic zeolite, reduced to 0,5 grams
Description: After 12 hours, at 29 degrees C., hydrophobic zeolite Y powder has dropped approximately 70% of its ethanol.
Hydrophobic zeolite Y was loaded with 16 weight per cent ethanol and its free release of ethanol over the time at a surrounding temperature off 29 degrees C. was studied. The result appears in FIG. 1. Which also appears from FIG. 1, the hydrophobic zeolite had, after approximately 5 hours, given the half amount of its ethanol, and was still active.
In a parallel experiment evaporation of 95% ethanol, not adsorbed to any hydrophobic zeolite, was measured. One gram of this ethanol had after 8 minutes been reduced through evaporation to 0,5 grams, i e to half the amount. This is a drastic difference compared with ethanol which is adsorbed to hydrophobic zeolite. If the experiment had been executed with 99.5% ethanol instead of 95% it would presumably have been even smaller. Through the hydrophobic zeolite composition the skin is exposed to ethanol vapour during 50 times's longer time as in a normal sponging.
The mentioned hydrophobic zeolite loaded with ethanol gives a vapour that is near 100% ethanol in composition. The ethanol vapour can aggressively attack skin bacteria's in their hydrophobic environment during relatively long time.

## CCO [95% ethanol, ethanol]
  time until reduced through evaporation to half the amount: 8 min
